From patent publication US6133279A, “Therapeutic agents for renal diseases and organ preservatives” (Chugai Seiyaku Kabushiki Kaisha, priority 1996, dated 2000) come the findings set out here.

The subject of experiment [1] is porcine kidney-derived LLC-PK1 cells. Put plainly: Protective effect against oxidized LDL-induced injury of porcine kidney-derived LLC-PK1 cells (1). Type of experiment: cell-based. As to conditions: Sus scrofa, LLC-PK1, 6 h, mean ± standard deviation, read-out: Cytoprotection rate (%). On the procedure:
For the purpose of evaluating in vitro cytoprotective effect of the compounds of the present invention, a cytoprotective study was performed using porcine kidney-derived LLC-PK1 cells (ATCC-CRL-13921) injured by oxidized low-density lipoprotein (oxidized LDL).
Oxidized LDL was prepared by incubating 1 mg/ml of rabbit LDL in PBS (-) in the presence of 10 μM CuSO4 at 37° C. for 24 hours. Cell culture was carried out by plating 1.25×10^4 cells/250 μl/well on a 48-well plate containing M199 medium containing 3% FBS. Test compounds were dissolved or suspended in ethanol and added to the wells in an amount of 1.25 μl/well to a concentration of 0.1, 1 or 10 μM in each well. After 16 hours or immediately after the addition of the compounds, oxidized LDL was added to the wells. Probucol, α-tocopherol and Trolox which is a water-soluble analogue of α-tocopherol were used as reference control compounds. Oxidized LDL was diluted twice with saline and then added to the wells in an amount of 62.5 μl/well to a concentration of 100 μg/ml and the cells were cultured for 6 hours after addition of the oxidized LDL. Then, 162.5 μl/well of the culture medium were collected and measured for the lactate dehydrogenase (LDH) level (LD-L: SIGNA DIAGNOSTICS) having leaked into the medium.
The magnitude of cytoprotective effect was expressed as the cytoprotection rate which was determined by calculating the data assuming that the magnitude in wells containing oxidized LDL is 0% and that the magnitude in wells containing saline is 100%.

Experiment [2] shares this test system. The experiment can be described thus: Protective effect against oxidized LDL-induced injury of porcine kidney-derived LLC-PK1 cells (2). In kind it is cell-based. As to conditions: Sus scrofa, LLC-PK1, 6 h, mean ± standard deviation, read-out: Cytoprotection rate (%). On the procedure: For the purpose of evaluating in vitro cytoprotective effect of the compounds of the present invention, a cytoprotective study was performed using porcine kidney-derived LLC-PK1 cells (ATCC-CRL-13921) injured by oxidized low-density lipoprotein (oxidized LDL) in the same manner as in Test example 1 with the exception of some points.
Preparation of oxidized LDL and the conditions for cell culture and addition of test compounds were the same as in Test example 1. However, oxidized LDL was not diluted with saline and added to cells in an amount of 25 μl/well to a concentration of 91 μg/ml and the cells were cultured for 6 hours after addition of the oxidized LDL. Then, 150 μl/well of the culture medium were collected and measured for the lactate dehydrogenase (LDH) level (LD-L: SIGMA DIAGNOSTICS) having leaked in the medium.

Where [3] appears, read: compound added 16 hours before adding oxidized LDL.
[4] abbreviates: compound added immediately before adding oxidized LDL.

With `CC(C)(C)c1cc2c(c(C(C)(C)C)c1O)CCO2` [Example 1, 4,6-Di-t-butyl-5-hydroxy-2,3-dihydrobenzofuran], in experiment [1] (setting [3]), the inhibition at 0.1 µM was 22.3 ± 2.8%, the inhibition at 1 µM turned out to be 104 ± 3.3% and the inhibition at 10 µM was 100.9 ± 0.5%. Also, in experiment [1] (setting [4]), the inhibition at 0.1 µM was found to be 7.6 ± 1.4%, the inhibition at 1 µM was determined as 99.7 ± 0.4% and the inhibition at 10 µM worked out at 100.9 ± 0.3%.
With `CC(=O)Oc1c(C(C)(C)C)cc2c(c1C(C)(C)C)CC(C)(C)O2` [Example 3, 5-Acetoxy-4,6-di-t-butyl-2,2-dimethyl-2,3-dihydrobenzofuran], in experiment [1] (setting [3]), the inhibition at 0.1 µM was found to be 27 ± 18.2%, the inhibition at 1 µM came to 1.8 ± 6.8% and the inhibition at 10 µM amounted to 23.2 ± 11.3%. For the same molecule, in experiment [1] (setting [4]), the inhibition at 0.1 µM was -6.5 ± 2.7%, the inhibition at 1 µM is -4% and the inhibition at 10 µM came out at 4.3 ± 3.6%.
Regarding `CC1(C)Cc2c(cc(C(C)(C)C)c(O)c2C(C)(C)C)O1` [Example 4, 4,6-Di-t-butyl-5-hydroxy-2,2-dimethyl-2,3-dihydrobenzofuran], in experiment [1] (setting [3]), the inhibition at 0.1 µM amounted to 11.5 ± 8%, the inhibition at 1 µM is 106 ± 1.2% and the inhibition at 10 µM stood at 100.4 ± 0.3%. Besides, in experiment [1] (setting [4]), the inhibition at 0.1 µM was -9.6 ± 2.2%, the inhibition at 1 µM turned out to be 103% and the inhibition at 10 µM amounted to 99.6 ± 0.8%.
With `CC(C)(C)c1cc2c(c(C(C)(C)C)c1O)CC(C(C)(C)C)O2` (stereo not drawn) [Example 13, 2,4,6-Tri-t-butyl-5-hydroxy-2,3-dihydrobenzofuran], in experiment [1] (setting [3]), the inhibition at 0.1 µM came out at 32 ± 2.8%, the inhibition at 1 µM amounted to 55.6 ± 15% and the inhibition at 10 µM is 99.9 ± 0.2%. Also, in experiment [1] (setting [4]), the inhibition at 0.1 µM was 11.9 ± 1.9%, the inhibition at 1 µM is 97.8% and the inhibition at 10 µM worked out at 100.4 ± 0.4%.
On to `CC(C)(C)c1cc2c(c(C(C)(C)C)c1O)CC1(CCCC1)O2` [Example 18, 4,6-Di-t-butyl-5-hydroxy-2,3-dihydrobenzofuran-2-spiro-1'-cyclopentane], for which, in experiment [1] (setting [3]), the inhibition at 0.1 µM was -1.9 ± 17.3%, the inhibition at 1 µM worked out at 66.8 ± 22.2% and the inhibition at 10 µM was 99.9 ± 0.2%. Moreover, in experiment [1] (setting [4]), the inhibition at 0.1 µM is -4.5 ± 6.3%, the inhibition at 1 µM was 98.4% and the inhibition at 10 µM worked out at 99.7 ± 0.2%.
For `CC(C)(C)c1cc2c(c(C(C)(C)C)c1O)CC1(CCCCC1)O2` [Example 19, 4,6-Di-t-butyl-5-hydroxy-2,3-dihydrobenzofuran-2-spiro-1'-cyclohexane], in experiment [2] (setting [3]), the inhibition at 0.1 µM was 2.7 ± 1.6%, the inhibition at 1 µM came to 60.6 ± 6.1% and the inhibition at 10 µM was 103 ± 1.2%. Moreover, in experiment [2] (setting [4]), the inhibition at 0.1 µM was 1.2 ± 0.9%, the inhibition at 1 µM was 86.8 ± 5.2% and the inhibition at 10 µM is 101 ± 2.5%.
Turning to `CC(C)(C)c1cc2c(c(C(C)(C)C)c1O)CC1(CCOCC1)O2` [Example 22, 4,6-Di-t-butyl-5-hydroxy-2,3-dihydrobenzofuran-2-spiro-4'-tetrahydropyran], in experiment [1] (setting [3]), the inhibition at 0.1 µM stood at 3.5 ± 10.4%, the inhibition at 1 µM stood at 102.2 ± 0.2% and the inhibition at 10 µM was found to be 101 ± 0.5%. For the same molecule, in experiment [1] (setting [4]), the inhibition at 0.1 µM was -1.7 ± 0.2%, the inhibition at 1 µM stood at 101% and the inhibition at 10 µM is 101.1 ± 0.2%.
With `CCCc1c2c(c(C(C)(C)C)c(O)c1C(C)(C)C)CC(C)(C)O2` [Example 25, 5-Hydroxy-4,6-di-t-butyl-2,2-dimethyl-7-propyl-2,3-dihydrobenzofuran], in experiment [1] (setting [3]), the inhibition at 0.1 µM came to 47.4 ± 6%, the inhibition at 1 µM is 7.9 ± 10.8% and the inhibition at 10 µM is 28.6 ± 6.4%. For the same molecule, in experiment [1] (setting [4]), the inhibition at 0.1 µM was determined as 1.4 ± 3.8%, the inhibition at 1 µM is 0.8% and the inhibition at 10 µM turned out to be 66.5 ± 7.7%.
With `CC(C)(C)c1cc2occc2c(C(C)(C)C)c1O` [Example 27, 4,6-Di-t-butyl-5-hydroxybenzofuran], in experiment [1] (setting [3]), the inhibition at 0.1 µM was found to be 44.1 ± 24.3%, the inhibition at 1 µM worked out at 96 ± 0.7% and the inhibition at 10 µM turned out to be 97.7 ± 1.7%. Moreover, in experiment [1] (setting [4]), the inhibition at 0.1 µM is 4.2 ± 1.4%, the inhibition at 1 µM was 91% and the inhibition at 10 µM was determined as 96.8 ± 0.5%.
With `CCCOc1cc(C(C)(C)C)c(O)c(C(C)(C)C)c1C` [Example 31, 2,6-Di-t-butyl-3-methyl-4-propyloxyphenol], in experiment [1] (setting [3]), the inhibition at 0.1 µM is -0.1 ± 18.7%, the inhibition at 1 µM was determined as 3.5 ± 18.5% and the inhibition at 10 µM turned out to be 68.8 ± 15.8%. In experiment [1] (setting [4]), the inhibition at 0.1 µM was determined as 6.9 ± 1.1%, the inhibition at 1 µM was 15.7% and the inhibition at 10 µM is 71.8 ± 6.9%.
Consider `C/C(=C\CCC1(C)Cc2c(cc(C(C)(C)C)c(O)c2C(C)(C)C)O1)CO` (stereo not drawn) [Example 46, 4,6-Di-t-butyl-5-hydroxy-2-(5-hydroxy-4-methyl-3(E)-pentenyl)-2-methyl-2,3-dihydrobenzofuran], for which, in experiment [1] (setting [3]), the inhibition at 0.1 µM was 11 ± 1.5%, the inhibition at 1 µM was found to be 53.5 ± 10% and the inhibition at 10 µM was 104 ± 2%. In experiment [1] (setting [4]), the inhibition at 0.1 µM was -8.9 ± 3.1%, the inhibition at 1 µM was determined as 101% and the inhibition at 10 µM was 104.4 ± 0.4%.
As to `CC1(CO)Cc2c(cc(C(C)(C)C)c(O)c2C(C)(C)C)O1` (stereo not drawn) [Example 48, 4,6-Di-t-butyl-5-hydroxy-2-hydroxymethyl-2-methyl-2,3-dihydrobenzofuran], in experiment [1] (setting [3]), the inhibition at 0.1 µM was -0.5 ± 23.4%, the inhibition at 1 µM was determined as 84.2 ± 4.4% and the inhibition at 10 µM amounted to 98.1 ± 0.7%. Further, in experiment [1] (setting [4]), the inhibition at 0.1 µM was determined as 3.8 ± 0.3%, the inhibition at 1 µM is 102% and the inhibition at 10 µM was determined as 98.2 ± 0.3%.
Take `CCCCCC1(CCCCC)Cc2c(cc(C(C)(C)C)c(O)c2C(C)(C)C)S1` [Example 50, 4,6-Di-t-butyl-5-hydroxy-2,2-di-n-pentyl-2,3-dihydrobenzothiophene]: in experiment [1] (setting [3]), the inhibition at 0.1 µM came to 1.9 ± 8%, the inhibition at 1 µM was determined as 37.4 ± 17.1% and the inhibition at 10 µM amounted to 81.6 ± 4%. For the same molecule, in experiment [1] (setting [4]), the inhibition at 0.1 µM was 9.3 ± 3.3%, the inhibition at 1 µM turned out to be 15.3% and the inhibition at 10 µM is 99.2 ± 1.3%.
Regarding `CC1Cc2c(cc(C(C)(C)C)c(O)c2C(C)(C)C)S1` (stereo not drawn) [Example 51, 4,6-Di-t-butyl-5-hydroxy-2-methyl-2,3-dihydrobenzothiophene], in experiment [1] (setting [3]), the inhibition at 0.1 µM is -6.1 ± 7.6%, the inhibition at 1 µM came out at 17.8 ± 18.1% and the inhibition at 10 µM came to 99.3 ± 0.7%. For the same molecule, in experiment [1] (setting [4]), the inhibition at 0.1 µM was 2.2 ± 4.9%, the inhibition at 1 µM stood at 28.9% and the inhibition at 10 µM came to 101.4 ± 0.3%.
For `CC1(C)Cc2c(cc(C(C)(C)C)c(O)c2C(C)(C)C)S1` [Example 52, 4,6-Di-t-butyl-5-hydroxy-2,2-dimethyl-2,3-dihydrobenzothiophene], in experiment [1] (setting [3]), the inhibition at 0.1 µM was 6.5 ± 1.4%, the inhibition at 1 µM was 41.2 ± 11.9% and the inhibition at 10 µM was found to be 99.1 ± 0.1%. In experiment [1] (setting [4]), the inhibition at 0.1 µM is -0.7 ± 1.1%, the inhibition at 1 µM worked out at 96.9% and the inhibition at 10 µM is 99.5 ± 0.4%.
Regarding `CC(C)(C)c1cc2sccc2c(C(C)(C)C)c1O` [Example 54, 4,6-Di-t-butyl-5-hydroxybenzo[b]thiophene], in experiment [1] (setting [3]), the inhibition at 0.1 µM was 96 ± 0.5%, the inhibition at 1 µM amounted to 90 ± 5% and the inhibition at 10 µM was determined as 94.8 ± 2.2%. Also, in experiment [1] (setting [4]), the inhibition at 0.1 µM came out at 35.9 ± 26.4%, the inhibition at 1 µM stood at 96.7% and the inhibition at 10 µM amounted to 98.9 ± 0.4%.
For `CC(C)(C)c1cc2c(c(C(C)(C)C)c1O)CC1(CCCCC1)S2` [Example 58, 4,6-Di-t-butyl-5-hydroxy-2,3-dihydrobenzothiophene-2-spiro-1'-cyclohexane], in experiment [1] (setting [3]), the inhibition at 0.1 µM amounted to 3.6 ± 18.3%, the inhibition at 1 µM came out at 95 ± 4.2% and the inhibition at 10 µM came to 99.3 ± 0.9%. In experiment [1] (setting [4]), the inhibition at 0.1 µM stood at 11 ± 4%, the inhibition at 1 µM is 74.3% and the inhibition at 10 µM came out at 101 ± 0.2%.
On to `CN(C)CC1(C)Cc2c(cc(C(C)(C)C)c(O)c2C(C)(C)C)S1` (stereo not drawn) [Example 61, 4,6-Di-t-butyl-5-hydroxy-2-(N,N-dimethylaminomethyl)-2-methyl-2,3-dihydrobenzothiophene], for which, in experiment [2] (setting [3]), the inhibition at 0.1 µM was determined as 5 ± 1.2%, the inhibition at 1 µM came out at 85.7 ± 8.1% and the inhibition at 10 µM was determined as 101.3 ± 0.6%. For the same molecule, in experiment [2] (setting [4]), the inhibition at 0.1 µM worked out at 5.1 ± 1.5%, the inhibition at 1 µM is 97.6% and the inhibition at 10 µM is 101.7 ± 0.5%.
